According to patent US10525186B2 (Fresenius Medical Care Holdings, Inc., priority 2009, dated 2020):

Test: Hemodialysis treatments with trisodium citrate infusion into the arterial line and Citrasate dialysate; measured ionized calcium
Format: in vivo, maintenance HD patients
Conditions: 15 min into the treatment, mean±SD
Protocol: For one treatment only, Citrasate with 2.5 mEq/L Ca was used. No post-dialyzer Ca infusion was performed. Total Ca, Ca^++ and total Ci were measured systemically, pre- and post-dialyzer at the following time points: before HD (systemically only), at several time points throughout the treatment, and at the end of HD. […] Total protein and albumin were measured before dialysis. The most recent alkaline phosphatase (AP) and total parathyroid hormone (PTH) (Scantibodies assay, Scantibodies Laboratory, Inc., Santee, Calif.) were recorded. […] All subjects used Optiflux F180NR dialyzers (Fresenius Medical Care North America, Waltham, Mass.).
Measured and predicted systemic Ca^++ were compared pre-HD and at 15 min into the treatment. For the latter, pre-HD predicted were adjusted to measured values. Pre- and post-dialyzer comparisons between measured and estimated Ca^++ were performed at 15 min into the treatment. Deviations between predicted and measured systemic Ca^++ over the entire treatment were compared for tertiles of AP and tPTH.
Results are presented below as mean±standard deviation (SD) unless otherwise noted. Differences between predicted and measured values were calculated as predicted minus measured and were tested for significant deviation from zero by means of two-tailed one-sample t test. Bland-Altman plots were generated and the underlying data analyzed for systematic bias by means of linear regression. Statistical significance was accepted for an alpha level of <0.05.

[1] = Citrasate dialysate, no post-dialyzer Ca infusion

O=C([O-])CC(O)(CC(=O)[O-])C(=O)[O-].[Na+].[Na+].[Na+] [Trisodium citrate]
Measured post-dialyzer Ca [1]: 0.7 ± 0.05 mmol/L
Measured systemic Ca++ [1]: 1.01 ± 0.05 mmol/L
Measured pre-dialyzer Ca (after citrate infusion): 0.33 ± 0.06 mmol/L
